The record followed here is patent US20050276832A1, “Topical compositions and uses thereof for treating aquatic animals subjected to disinfection and vaccination” (Veterquimica Ltda., priority 2004, published 2005).

Molecules are shown by their SMILES.

The assay relates to Saprolengia sp. The assay is described as follows: Antifungal bath treatment of Atlantic salmon infected by Saprolengia sp. The class given is in vivo. Conditions: 1 h baths on Day 1 and Day 7. From the text:
Five groups were formed, made up of 30 fish each of the Atlantic salmon species, 40-50 grams, showing clear signs of infection by the fungus Saprolengia sp., confirmed by laboratory tests. One of the groups was preserved as control without treatment, while the four remaining groups were subjected to experimental antifingal treatments. In this way, the groups were set up as follows: • GROUP 1: Without antifungal treatment • GROUP 2: Treated with the antifungal product bronopol, according to recommended dose of 20 ppm • GROUP 3: Treated with the Formulation A, in a dose of 28 ml/70 liters of water • GROUP 4: Treated with the Formulation B, in a dose of 28 ml/70 liters of water • GROUP 5: Treated with the Formulation C, in a dose of 28 ml/70 liters of water
The treatments consisted of the following: on Day 1, the fish were submerged for one hour in a bath with 70 liters of water to which the corresponding formulation had been added. Afterwards, they were transferred to breeding tanks that only contained water and with a standard feeding regime, all under the customary aquarium control that includes controlling the temperature (16-17 degrees C.), dissolved oxygen levels not lower than 7 ppm, and control of nitrites and ammonium. On Day 7, the fish were subjected to a second bath, similar to that of Day 1, to continue their development until 14 days of breeding had been completed, keeping a record of the fish killed due to the effect of the Saprolengia fungus. On Day 15, the fish that survived were harvested and the level of infection by Saprolengia was determined for each fish.
The infection level was classified according to the following scale: • INFECTION GRADE 0: healthy fish, without fungus on the skin • INFECTION GRADE 1: fish having only fungal spots on the skin. • INFECTION GRADE 2: fish with short fungal hypha • INFECTION GRADE 3: fish having necrosis of the tissues • INFECTION GRADE 4: fish with cottony hypha • INFECTION GRADE 5: fish dead due to fungal infection (occurring during the 14 days of breeding) Results

For `O=[N+]([O-])C(Br)(CO)CO` [bromopol, bromo-2-nitropropane-1.3-diol], the “fish with grade 5 (death)” value (30 fish per group, dead due to fungal infection during 14 days of breeding) is given as 50%. For the setting “infection level on Day 15, grade 1 fungal spots, grade 2 short fungal hypha”, the “fish with grade 1-2” value amounted to 40%. Moreover, the “fish with grade 0 (healthy)” value (infection level on Day 15, without fungus on the skin) was 10%.
